{
  "source": "patent US9889182B2",
  "about": "“Assisted enzyme replacement therapy” (The Regents of the University of California, priority 2009, dated 2018)",
  "molecules": {"B1": {"name": "Aldurazyme: recombinant therapeutic α-1-iduronidase (protein, UniProt P35475 28-653, looked up)", "Alpha-L-iduronidase": "APHLVHVDAARALWPLRRFWRSTGFCPPLPHSQADQYVLSWDQQLNLAYVGAVPHRGIKQVRTHWLLELVTTRGSTGRGLSYNFTHLDGYLDLLRENQLLPGFELMGSASGHFTDFEDKQQVFEWKDLVSSLARRYIGRYGLAHVSKWNFETWNEPDHHDFDNVSMTMQGFLNYYDACSEGLRAASPALRLGGPGDSFHTPPRSPLSWGLLRHCHDGTNFFTGEAGVRLDYISLHRKGARSSISILEQEKVVAQQIRQLFPKFADTPIYNDEADPLVGWSLPQPWRADVTYAAMVVKVIAQHQNLLLANTTSAFPYALLSNDNAFLSYHPHPFAQRTLTARFQVNNTRPPHVQLLRKPVLTAMGLLALLDEEQLWAEVSQAGTVLDSNHTVGVLASAHRPQGPADAWRAAVLIYASDDTRAHPNRSVAVTLRLRGVPPGPGLVYVTRYLDNGLCSPDGEWRRLGRPVFPTAEQFRRMRAAEDPVAAAPRPLPAGGRLTLRPALRLPSLLLVHVCARPEKPPGQVTRLRALPLTQGQLVLVWSDEHVGSKCLWTYEIQFSQDGKAYTPVSRKPSTFNLFVFSPDTGAVSGSYRVRALDYWARPGPFSDPVPYLEVPVPRGPPSPGNP", "modifications": "laronidase", "notes": "recombinant therapeutic α-1-iduronidase"}, "B2": {"name": "GNeo-AP-α-1-iduronidase: GNeo conjugated to AP-α-1-iduronidase (conjugate, UniProt P35475 28-653, looked up)", "Alpha-L-iduronidase": "APHLVHVDAARALWPLRRFWRSTGFCPPLPHSQADQYVLSWDQQLNLAYVGAVPHRGIKQVRTHWLLELVTTRGSTGRGLSYNFTHLDGYLDLLRENQLLPGFELMGSASGHFTDFEDKQQVFEWKDLVSSLARRYIGRYGLAHVSKWNFETWNEPDHHDFDNVSMTMQGFLNYYDACSEGLRAASPALRLGGPGDSFHTPPRSPLSWGLLRHCHDGTNFFTGEAGVRLDYISLHRKGARSSISILEQEKVVAQQIRQLFPKFADTPIYNDEADPLVGWSLPQPWRADVTYAAMVVKVIAQHQNLLLANTTSAFPYALLSNDNAFLSYHPHPFAQRTLTARFQVNNTRPPHVQLLRKPVLTAMGLLALLDEEQLWAEVSQAGTVLDSNHTVGVLASAHRPQGPADAWRAAVLIYASDDTRAHPNRSVAVTLRLRGVPPGPGLVYVTRYLDNGLCSPDGEWRRLGRPVFPTAEQFRRMRAAEDPVAAAPRPLPAGGRLTLRPALRLPSLLLVHVCARPEKPPGQVTRLRALPLTQGQLVLVWSDEHVGSKCLWTYEIQFSQDGKAYTPVSRKPSTFNLFVFSPDTGAVSGSYRVRALDYWARPGPFSDPVPYLEVPVPRGPPSPGNP", "modifications": "GNeo conjugate, dephosphorylated", "notes": "GNeo conjugated to AP-α-1-iduronidase"}, "B3": {"name": "AP-α-1-iduronidase: α-1-iduronidase treated with alkaline phosphatase (protein, UniProt P35475 28-653, looked up)", "Alpha-L-iduronidase": "APHLVHVDAARALWPLRRFWRSTGFCPPLPHSQADQYVLSWDQQLNLAYVGAVPHRGIKQVRTHWLLELVTTRGSTGRGLSYNFTHLDGYLDLLRENQLLPGFELMGSASGHFTDFEDKQQVFEWKDLVSSLARRYIGRYGLAHVSKWNFETWNEPDHHDFDNVSMTMQGFLNYYDACSEGLRAASPALRLGGPGDSFHTPPRSPLSWGLLRHCHDGTNFFTGEAGVRLDYISLHRKGARSSISILEQEKVVAQQIRQLFPKFADTPIYNDEADPLVGWSLPQPWRADVTYAAMVVKVIAQHQNLLLANTTSAFPYALLSNDNAFLSYHPHPFAQRTLTARFQVNNTRPPHVQLLRKPVLTAMGLLALLDEEQLWAEVSQAGTVLDSNHTVGVLASAHRPQGPADAWRAAVLIYASDDTRAHPNRSVAVTLRLRGVPPGPGLVYVTRYLDNGLCSPDGEWRRLGRPVFPTAEQFRRMRAAEDPVAAAPRPLPAGGRLTLRPALRLPSLLLVHVCARPEKPPGQVTRLRALPLTQGQLVLVWSDEHVGSKCLWTYEIQFSQDGKAYTPVSRKPSTFNLFVFSPDTGAVSGSYRVRALDYWARPGPFSDPVPYLEVPVPRGPPSPGNP", "modifications": "dephosphorylated by alkaline phosphatase", "notes": "α-1-iduronidase treated with alkaline phosphatase"}},
  "key": {"10T1/2 cells": {"tested_on": "10T1/2 cells", "assay": "FACS cellular uptake of BODIPY conjugates in 10T1/2 cells", "format": "cell-based, mouse", "method": "10T1/2 cells, an adherent non-transformed mouse fibroblast cell line, and HeLa cells, a common human cancer cell line, were purchased from ATCC and used before their 20th passage. Both cell lines were cultured in Dulbecco's modified eagle medium containing 10% fetal bovine serum at 37° C. in an 8% CO2 environment. For each experiment, cells were seeded onto 4 cm tissue culture plates (Nunc) and allowed to grow overnight to ˜80% confluency.\nCompounds 1-5 identified in Table 1, below (0.5-1 μM), were added to each dish and incubated at 37° C./8% CO2 for 0.5-1 hr. Cells were then washed once in PBS, trypsinized with 500 μl ATV solution (Gibco) for 3 minutes, pelleted in a fixed angle centrifuge for 5 minutes at 5,000×G, then brought up in 1 mL PBS. Each sample was quickly (within 5 minutes) analyzed on a FACS VantageSE cell sorter (Becton-Dickinson) using the 488 nm argon/krypton laser line and a 530 nm band pass emission filter. 2,000-10,000 cells were counted per sample."}, "[1]": {"tested_on": "FGF-2 binding to cell surface heparan sulfate", "assay": "Inhibition of biotinylated FGF-2 binding to wild-type CHO cells", "set-up": "species or system Chinese hamster", "method": "(§1) Inhibition Experiments—Wild-type CHO cells were grown to confluence on 6-well tissue culture plates, harvested with 10 mM EDTA (37° C., 10 min), washed with phosphate-buffered saline (PBS), and incubated in suspension with biotinylated FGF-2 (10 ng/ml) (25) in F12 medium for 1 h at 4° C. in the presence of increasing concentrations of guanidinoneomycin (100 nM to 1.8 mM). The cells were then stained with streptavidin-phycoerythrin-Cy5 (BD Biosciences) for 20 min, washed three times with PBS, and analyzed by flow cytometry. Cells were also incubated in F12 medium containing 0.5 μM Arg9-BODIPY and increasing concentrations of guanidinoneomycin (1-300 μM) for 1 h at 37° C. and analyzed by flow cytometry."}, "Wild-type CHO cells [2]": {"tested_on": "Wild-type CHO cells", "assay": "Inhibition of Arg9-BODIPY binding and uptake", "format": "cell-based, Chinese hamster", "conditions": "Arg9-BODIPY 0.5 μM, guanidinoneomycin 1-300 μM, 1 h, 37° C.", "method": "as §1"}, "Wild-type CHO cells [3]": {"tested_on": "Wild-type CHO cells", "assay": "Uptake of streptavidin-PE-Cy5 conjugates by flow cytometry, wild-type CHO cells", "format": "cell-based, Chinese hamster", "experimental": "After thawing at room temperature, compounds were diluted into F12 medium to 1 μM. To this solution, streptavidin-PE-Cy5 (BD Biosciences) was added in a 1:1000 dilution to achieve a ratio of 1:3 of fluorophore to biotin. To ensure completion of the biotin-streptavidin reaction, the solution was gently mixed and allowed to incubate at room temperature, shielded from light for 30 min. Following this incubation, compounds were diluted to the desired concentration in growth medium. For experiments done at 4° C. solutions were incubated on ice for 30 min.\nAfter washing with PBS, cells were incubated with the fluorescent-tagged guanidinoneomycin-, neomycin-, or Arg9-biotin for 1 h at 37° C. under an atmosphere of 5% CO2. Cells were washed with PBS, released with EDTA, and analyzed by flow cytometry."}, "WT CHO-K1 cells": {"tested_on": "WT CHO-K1 cells", "assay": "Competition of guanidinoneomycin construct uptake by model glycans", "format": "cell-based, Chinese hamster"}, "Wild-type CHO cells [4]": {"tested_on": "Wild-type CHO cells", "assay": "Live-cell uptake of fluorescent guanidinoneomycin conjugate (streptavidin-Alexa-488), microscopy", "format": "cell-based, Chinese hamster", "conditions": "heparin 50 μg/ml", "method": "Microscopy—Cells were cultured on Lab-Tek chambered coverglass slides (Electron Microscopy Sciences) in F12 medium. After washing with PBS, cells were incubated for 1 h in 1 ml of 60 nM guanidinoneomycin coupled to streptavidin-Alexa-488 (Molecular Probes) at 37° C. Guanidinoneomycin-A488 was prepared by incubating 1 μM guanidinoneomycinbiotin with 6 μg of streptavidin-Alexa-488 in 1 ml of medium. Hoechst 33342 (2 μg/ml; Molecular Probes) was added to cells for the last 20 min of incubation. Cells were washed three times with F12 medium before live cell imaging. Microscopic images were acquired on an Olympus IX70 DeltaVision Spectris Image Deconvolution system, equipped with a temperature and atmospherically controlled stage. Images were deconvolved (10 cycles) using SoftWoRx Explorer Suite software."}, "Wild-type CHO cells [5]": {"tested_on": "Wild-type CHO cells", "assay": "Saporin delivery, CellTiter-Blue viability, wild-type CHO cells", "conditions": "at concentrations up to 100 nM", "method": "Saporin Delivery—A conjugate of saporin and biotinylated guanidinoneomycin was prepared by mixing streptavidinylated saporin (Advanced Targeting Systems) with biotinylated compound in 1:4 ratio. […] CellTiter-Blue (Promega) was added to the medium and cells were incubated for an additional 4 h to measure viability."}, "MPS I fibroblasts": {"tested_on": "MPS I fibroblasts", "assay": "[35S]glycosaminoglycan turnover, label-chase, MPS I fibroblasts", "format": "cell-based, human", "conditions": "enzyme 2 hours, chase 24 hours", "method": "To test whether internalized GUS was functionally localized in lysosomes, a label-chase format was used in which cells were incubated with ^35S-labeled sulfate for 24 hours to radiolabel the sulfated glycosaminoglycans. The medium was changed, and after 24 hours, the amount of [^35S]glycosaminoglycans that remained associated with the cells was quantitated. Normal and MPS fibroblasts were incubated in DMEM/F12 medium supplemented with 10% dialyzed fetal bovine serum in order to increase the radiospecific activity of added ^35S4. Cells were seeded in a 12-well plate, and at confluence, 50 μCi of Na[^35S]O4 (PerkinElmer) was added in 1 ml of fresh medium. After 24 hours, the cells were rinsed twice with PBS, exposed to GUS or α-iduronidase for 2 hours, rinsed twice, and then chased for 24 hours in complete growth medium. The cells were harvested with trypsin, centrifuged (500 g, 5 minutes), and washed once. The sedimented cells were then resuspended in 100 μl of RIPA buffer (Sigma) and counted by liquid scintillation spectrometry using Scintillator Ultima Gold XR (PerkinElmer)."}},
  "note": "Entries after “also recorded” stand apart in the source; their conditions may differ.",
  "data": [
    {"molecule": "N=C(N)NC[C@@H]1O[C@H](O[C@H]2[C@@H](O)[C@H](O[C@@H]3[C@@H](O)[C@H](NC(=N)N)C[C@H](NC(=N)N)[C@H]3O[C@H]3O[C@H](CNC(=N)N)[C@@H](O)[C@H](O)[C@H]3NC(=N)N)O[C@@H]2CO)[C@H](NC(=N)N)[C@@H](O)[C@@H]1O", "note": "[guanidinoneomycin, guanidino-neomycin B]", "values": [
      {"measurement": "inhibition of transport of BODIPY-Cys(Arg)9 into cells", "setting": "10T1/2 cells; competition experiment, FACS", "value": "effectively inhibits"},
      {"measurement": "IC50", "setting": "[1]; biotinylated FGF-2 10 ng/ml, 1 h, 4° C.", "value": "~20", "unit": "µM"},
      {"measurement": "inhibition of fluorescent Arg9 binding and uptake", "setting": "Wild-type CHO cells [2]", "value": "incomplete; also recorded: partially block"}
    ]},
    {"molecule": "NC[C@@H]1O[C@H](O[C@H]2[C@@H](O)[C@H](O[C@@H]3[C@@H](O)[C@H](N)C[C@H](N)[C@H]3O[C@H]3O[C@H](CN)[C@@H](O)[C@H](O)[C@H]3N)O[C@@H]2CO)[C@H](N)[C@@H](O)[C@@H]1O", "note": "[neomycin, neomycin B, reference compound]", "values": [
      {"measurement": "enhancement of cellular uptake upon guanidinylation", "setting": "10T1/2 cells; relative to autofluorescence, BODIPY conjugates, FIG. 3 and Table 1", "value": "approximately 20 fold"},
      {"measurement": "inhibition of FGF-2 binding", "setting": "[1]", "value": "did not inhibit binding"}
    ]},
    {"molecule": "heparin [Heparin (A)]", "values": [
      {"measurement": "heparin concentration blocking uptake of fluorescent guanidinoneomycin conjugate (as low as)", "setting": "Wild-type CHO cells [3]", "value": "≥ 100", "unit": "ng/mL"},
      {"measurement": "increase of sensitivity of dimeric over monomeric construct to inhibition", "setting": "WT CHO-K1 cells", "value": 3, "unit": "fold"},
      {"measurement": "inhibition of uptake of monomeric guanidinoneomycin 1", "setting": "WT CHO-K1 cells; at the tested concentrations", "value": "showed inhibition"},
      {"measurement": "effect of heparin in incubation medium on uptake of guanidinoneomycin-streptavidin-Alexa-488", "setting": "Wild-type CHO cells [4]", "value": "completely abolished uptake"}
    ]},
    {"molecule": "saporin", "values": [
      {"measurement": "cell toxicity", "setting": "Wild-type CHO cells [5]", "value": "No cell toxicity"}
    ]},
    {"molecule": "B1", "values": [
      {"measurement": "ED50, [35S]glycosaminoglycan turnover", "setting": "MPS I fibroblasts", "value": 1, "unit": "U"}
    ]},
    {"molecule": "B2", "values": [
      {"measurement": "ED50, [35S]glycosaminoglycan turnover", "setting": "MPS I fibroblasts", "value": 0.2, "unit": "units"}
    ]},
    {"molecule": "B3", "values": [
      {"measurement": "ED50, [35S]glycosaminoglycan turnover", "setting": "MPS I fibroblasts", "value": 30, "unit": "U"}
    ]}
  ]
}
